# Test results taken from the CheMixHub viscosity set.
# ± gives the uncertainty stated by the source.
# Test: xn = mol fraction of the nth substance listed
compound,measurement,setting,value
Clc1ccccc1 + Cc1ccccc1,viscosity,"293.15 K, 101 kPa, x1 = 0.0994",0.6134 ± 0.016 mPa·s
same,viscosity,"293.15 K, 101 kPa, x1 = 0.2021",0.635 ± 0.017 mPa·s
same,viscosity,"293.15 K, 101 kPa, x1 = 0.2979",0.6571 ± 0.017 mPa·s
same,viscosity,"293.15 K, 101 kPa, x1 = 0.3973",0.6775 ± 0.018 mPa·s
same,viscosity,"293.15 K, 101 kPa, x1 = 0.5013",0.7014 ± 0.019 mPa·s
same,viscosity,"293.15 K, 101 kPa, x1 = 0.6023",0.7232 ± 0.019 mPa·s
same,viscosity,"293.15 K, 101 kPa, x1 = 0.7024",0.7433 ± 0.02 mPa·s
same,viscosity,"293.15 K, 101 kPa, x1 = 0.8007",0.7655 ± 0.02 mPa·s
same,viscosity,"293.15 K, 101 kPa, x1 = 0.9047",0.786 ± 0.021 mPa·s
same,viscosity,"293.15 K, 101 kPa, x2 = 0.2",0.751 ± 0.013 mPa·s
same,viscosity,"293.15 K, 101 kPa, x2 = 0.4",0.709 ± 0.012 mPa·s
same,viscosity,"293.15 K, 101 kPa, x2 = 0.6",0.667 ± 0.012 mPa·s
same,viscosity,"293.15 K, 101 kPa, x2 = 0.8",0.626 ± 0.011 mPa·s
same,viscosity,"294.55 K, 101.33 kPa, x1 = 0.2",0.6717 ± 0.0078 mPa·s
same,viscosity,"294.55 K, 101.33 kPa, x1 = 0.7",0.7968 ± 0.0092 mPa·s
same,viscosity,"294.75 K, 101.33 kPa, x1 = 0.3",0.6949 ± 0.0081 mPa·s
same,viscosity,"294.85 K, 101.33 kPa, x1 = 0.1",0.6367 ± 0.0074 mPa·s
same,viscosity,"295.05 K, 101.33 kPa, x1 = 0.4",0.7214 ± 0.0084 mPa·s
same,viscosity,"298.15 K, 101 kPa, x1 = 0.0994",0.5773 ± 0.015 mPa·s
same,viscosity,"298.15 K, 101 kPa, x1 = 0.2021",0.5971 ± 0.016 mPa·s
same,viscosity,"298.15 K, 101 kPa, x1 = 0.2979",0.6179 ± 0.016 mPa·s
same,viscosity,"298.15 K, 101 kPa, x1 = 0.3973",0.6368 ± 0.017 mPa·s
same,viscosity,"298.15 K, 101 kPa, x1 = 0.5013",0.6596 ± 0.017 mPa·s
same,viscosity,"298.15 K, 101 kPa, x1 = 0.6023",0.6799 ± 0.018 mPa·s
same,viscosity,"298.15 K, 101 kPa, x1 = 0.7024",0.6984 ± 0.018 mPa·s
same,viscosity,"298.15 K, 101 kPa, x1 = 0.8007",0.7195 ± 0.019 mPa·s
same,viscosity,"298.15 K, 101 kPa, x1 = 0.9047",0.7386 ± 0.019 mPa·s
same,viscosity,"298.15 K, 101 kPa, x2 = 0.101",0.7515 ± 0.0078 mPa·s
same,viscosity,"298.15 K, 101 kPa, x2 = 0.2035",0.7315 ± 0.0077 mPa·s
same,viscosity,"298.15 K, 101 kPa, x2 = 0.243",0.687 ± 0.007 mPa·s
same,viscosity,"298.15 K, 101 kPa, x2 = 0.3026",0.7086 ± 0.0076 mPa·s
same,viscosity,"298.15 K, 101 kPa, x2 = 0.4005",0.6929 ± 0.0075 mPa·s
same,viscosity,"298.15 K, 101 kPa, x2 = 0.45",0.646 ± 0.007 mPa·s
same,viscosity,"298.15 K, 101 kPa, x2 = 0.5004",0.6721 ± 0.0074 mPa·s
same,viscosity,"298.15 K, 101 kPa, x2 = 0.6014",0.6486 ± 0.0073 mPa·s
same,viscosity,"298.15 K, 101 kPa, x2 = 0.643",0.608 ± 0.006 mPa·s
same,viscosity,"298.15 K, 101 kPa, x2 = 0.7008",0.6321 ± 0.0072 mPa·s
same,viscosity,"298.15 K, 101 kPa, x2 = 0.803",0.577 ± 0.006 mPa·s
same,viscosity,"298.15 K, 101 kPa, x2 = 0.8048",0.6088 ± 0.0071 mPa·s
same,viscosity,"298.15 K, 101 kPa, x2 = 0.8995",0.592 ± 0.007 mPa·s
same,viscosity,"303.15 K, 101 kPa, x1 = 0.0994",0.5443 ± 0.015 mPa·s
same,viscosity,"303.15 K, 101 kPa, x1 = 0.2021",0.5628 ± 0.015 mPa·s
same,viscosity,"303.15 K, 101 kPa, x1 = 0.2979",0.5824 ± 0.015 mPa·s
same,viscosity,"303.15 K, 101 kPa, x1 = 0.3973",0.5999 ± 0.016 mPa·s
same,viscosity,"303.15 K, 101 kPa, x1 = 0.5013",0.6212 ± 0.017 mPa·s
same,viscosity,"303.15 K, 101 kPa, x1 = 0.6023",0.6405 ± 0.017 mPa·s
same,viscosity,"303.15 K, 101 kPa, x1 = 0.7024",0.6579 ± 0.017 mPa·s
same,viscosity,"303.15 K, 101 kPa, x1 = 0.8007",0.6779 ± 0.018 mPa·s
same,viscosity,"303.15 K, 101 kPa, x1 = 0.9047",0.6957 ± 0.018 mPa·s
same,viscosity,"303.15 K, 101 kPa, x2 = 0.0961",0.6999 ± 0.0062 mPa·s
same,viscosity,"303.15 K, 101 kPa, x2 = 0.101",0.7125 ± 0.0076 mPa·s
same,viscosity,"303.15 K, 101 kPa, x2 = 0.193",0.6791 ± 0.006 mPa·s
same,viscosity,"303.15 K, 101 kPa, x2 = 0.2035",0.6925 ± 0.0075 mPa·s
same,viscosity,"303.15 K, 101 kPa, x2 = 0.2907",0.6641 ± 0.0059 mPa·s
same,viscosity,"303.15 K, 101 kPa, x2 = 0.3026",0.6713 ± 0.0074 mPa·s
same,viscosity,"303.15 K, 101 kPa, x2 = 0.3894",0.6454 ± 0.0058 mPa·s
same,viscosity,"303.15 K, 101 kPa, x2 = 0.4005",0.6547 ± 0.0073 mPa·s
same,viscosity,"303.15 K, 101 kPa, x2 = 0.4889",0.63 ± 0.0056 mPa·s
same,viscosity,"303.15 K, 101 kPa, x2 = 0.5004",0.637 ± 0.0072 mPa·s
same,viscosity,"303.15 K, 101 kPa, x2 = 0.5893",0.6109 ± 0.0055 mPa·s
same,viscosity,"303.15 K, 101 kPa, x2 = 0.6014",0.6131 ± 0.0071 mPa·s
same,viscosity,"303.15 K, 101 kPa, x2 = 0.6906",0.5935 ± 0.0054 mPa·s
same,viscosity,"303.15 K, 101 kPa, x2 = 0.7008",0.5992 ± 0.007 mPa·s
same,viscosity,"303.15 K, 101 kPa, x2 = 0.7928",0.5753 ± 0.0052 mPa·s
same,viscosity,"303.15 K, 101 kPa, x2 = 0.8048",0.577 ± 0.0069 mPa·s
